Where two headings read alike, the source gives them in different places.
Assays:
[1] = test system: TNF α-production of LPS-stimulated blood cells; test: TNF-α production of lipopolysaccharide-stimulated human blood; format: cell-based
Method: (§1) The in vitro anti-inflammatory effect of ED and its analogs was assessed using LPS-induced TNF α-release under various conditions (diluted or undiluted whole human blood, preincubation with sera) to determine the intrinsic anti-inflammatory activity and systemic biological stability of the various compounds.
(§2) Commercially available human cytokine ELISA sets were used. TNF-α and GM-CSF sets were purchased from BD Pharmingen, San Diego, Calif., USA) and the IL-1β set was obtained from R&D Systems (Minneapolis, Minn., USA). ELISA was performed according to the manufacturer's protocol. Cell-free supernatants were tested in duplicate. Detection limits were 7.8 pg/ml for TNF-α, 4.7 pg/ml for GM-CSF, and 3.9 pg/ml for IL-1β. Results were expressed as the mean percentage of inhibition. IC50 values for test compounds were calculated by linear regression.
Peripheral blood from healthy donors was collected aseptically into sterile heparinized (Vacutainer™) tubes. Whole blood samples from each individual were parallel used both undiluted and after 5-fold dilution with RPMI-1640 medium in every experiment. Blood samples were distributed into 24-well plates and incubated with serial concentrations of the test compounds and 1 μg/ml lipopolysaccharide for 24 h at 37° C. in a CO2 thermostat. Controls were treated with lipopolysaccharide and the vehicle (PBS or 0.01% dimethyl sulfoxide in PBS). After incubation, cell-free supernatants were separated by centrifugation (1000 g for 10 minutes) and stored at −20° C. until determination of the amount of TNF-α. Test compounds were examined in blood samples from five different individuals. Two parallel cultures per treatments were run.

[2] = test system: mitogen-induced proliferation of PBMC; test: Proliferation of lectin-stimulated peripheral mononuclear cells; format: cell-based, human; details: read-out: Prolif.**: Inhibition of mitogen-induced proliferation of PBMC
Method: Mononuclear cells from heparinized peripheral blood of healthy donors were isolated on suitable gradient (Optiprep solution, 1.077 g/ml). Serial dilutions of the test compounds (ranging from 2×10^−6 to 2×10^−8 M) were made in 100 μl of medium per well of sterile round-bottomed 96-well microtiter plate. Control wells contained culture medium only. 100 μl of cell suspension (10^6 cells/ml), containing concanavalin A (2 μg/ml) was added to each well. […] All cultures were done in triplicate. Microtiter plates were incubated for 72 h at 37° C., in 5% CO2 containing humidified atmosphere. For the last 18 h of incubation, [^3H]thymidine was added to the cells cultures, at 0.1 μCi/well final concentration. At the end of the incubation, cells were harvested to glass microfiber filter (Whatman G/F) and associated radioactivity was determined by liquid scintillation.

[3] = test system: TNF-α production of LPS-stimulated whole blood cells; test: Stability: inhibition of TNF-α production with or without preincubation of the compounds in human plasma/serum; format: cell-based
Method: as §1, §2
Mononuclear cells from peripheral blood of healthy donors were isolated on Ficoll-gradient. One million cells in 0.9 ml of RPMI 1640 medium were distributed into 24-well plates and serial concentrations of the test compounds, made in fresh human serum either instantly or 18 h previously, were added (0.05 ml) together with the lipopolysaccharide (0.05 ml; 1 μg/ml final concentration). Preincubation of the compounds with serum was carried out at 37° C. Processing of the cultures was done as described above.

[4] = test system: ovalbumin sensitized and challenged Brown Norway rats; test: Airway changes of ovalbumin sensitized and challenged Brown Norway rats, intratracheal administration; format: in vivo; details: for AHR (airways hyperreactivity) ED50: relative response to maximal acetylcholine dose
[5] = Stability in the presence of human plasma (HPLC/MS/MS); format: in vitro ADME; details: 37° C.
Method: Etiprednol dicloacetate (BNP-166) was added to freshly prepared human plasma of healthy donors at a concentration of 5 ng/ml, and were incubated at 37° C. for different intervals. After incubation the amount of the original compound (ethyl-17α-dichloroacetoxy-11β-hydroxyandostra-1,4-diene-3-one-17β-carboxylate), and one of its main metabolite, M-OH (17α,11β-dihydroxyandostra-1,4-diene-3-one-17β-carboxylate) were determined using an HPLC/MS/MS method. In brief: Fluocinolone acetonide served as internal standard (20 ng/ml), samples were extracted with a liquid-liquid extraction on Extrelut® columns, and were separated on a Purospher STAR 30×2 mm (3 μm) reversed phase column at a flow rate of 0.3 ml/min, using a linear gradient with a mobile phase system containing acetonitrile, water and acetic acid. Determination were performed on a triple quadrupole mass spectrometer (Perkin-Elmer SCIEX API 2000) supplied with an electrospray interface operated in the positive ionization mode. The multiple ion monitoring, parent→daughter ion transitions of 485.2→265.2, 375.2→265.2 and 495.2→337.2 were used for the quantification of etiprednol dicloacetate, its M-OH metabolite and for the internal standard respectively. Results are expressed as peak areas normalized to the internal control. Stability of the selected ED analogs (10, 11, 13, 17, 21, 25) were determined as described above for ED (3).

[6] = test system: IL-1β from the human monocyte cell line THP-1; test: IL-1β production of stimulated THP.1 cells; format: cell-based
Method: as §2
THP.1 cells (human monocytic cell line: American Type Culture Collection. Rockville, Md., USA) were maintained in RPMI-1640 medium, supplemented with 10% FCS, 5×10^−5 M 2-merkapto-ethanol, 2 mM glutamine and antibiotics, and were split in every 3rd days. To examine the effect of test compounds 2×10^6 cells/well (24 well plates in 1 ml/well volume) were stimulated with 1 μg/ml LPS and 25 μg/ml silica for IL-1β production as described previously (Németh et al. 1995). The test compounds were dissolved in RPMI-1640 medium or the medium containing 0.01% DMSO. Two parallel cell cultures per treatment groups were run in three independent experiments. IL-1β levels in cell-free supernatants were determined by ELISA.

receptor = details: scale where dexamethasone is 100; cited from earlier work
TNF-α production = details: cited from earlier work
[7] = diluted blood 1:5, read-out: TNFα* a: Inhibition of TNF α-production of LPS-stimulated blood cells
[8] = undiluted blood, read-out: TNFα* b: Inhibition of TNF α-production of LPS-stimulated blood cells
[9] = non-preincubated in human plasma, read-out: Stability*** c: Inhibition of TNF-α production of LPS-stimulated whole blood cells
[10] = preincubated overnight in human plasma, read-out: Stability*** d: Inhibition of TNF-α production of LPS-stimulated whole blood cells
[11] = intratracheal, 2 hours prior challenge
[12] = intratracheal, 2 hours prior challenge, minimal statistically significantly effective dose

Compound	IC50 [1, 7] [nM]	IC50 [1, 8] [nM]	IC50 [2] [nM]	IC50 [3, 9] [nM]	IC50 [3, 10] [nM]	Edema formation ED50 [4, 11] [µg/kg]	Eosinophilia BALF ED50 [4, 11] [µg/kg]	Eosinophilia Perivascular ED50 [4, 11] [µg/kg]	Mucus production ED50 [4, 11] [µg/kg]	Mucus production, second line (dose type not given) [4, 11] [µg/kg]	AHR (airways hyperreactivity) MSED [4, 12]	Edema formation MSED [4, 12] [µg/kg]	Eosinophilia BALF MSED [4, 12] [µg/kg]	Eosinophilia Perivascular MSED [4, 12] [µg/kg]	AHR (airways hyperreactivity) ED50 [4, 11]	relative receptor binding activity (RRBA) (receptor)	other results
C[C@@H]1C[C@H]2[C@@H]3C[C@H](F)C4=CC(=O)C=C[C@]4(C)[C@@]3(F)[C@@H](O)C[C@]2(C)[C@@]1(OC(=O)C(Cl)Cl)C(=O)SCF [Compound 25, S-Fluoromethyl 17α-dichloroacetoxy-6α,9α-difluoro-11β-hydroxy-16α-methyl-3-oxoandrosta-1,4-diene-17β-carbothioate]	2	3	0.1	1	87	<1.0	16.1	83.8	7.42	100	10 µg/kg	1.0	1.0	1.0	3.75 µg/kg	–	overall in vivo activity compared with the parent steroid ([4]; Table 2 parameters): overall superior to FLU; BALF protein ED50 ([4]; intratracheal, 2 hours prior challenge, broncho-alveolar lavage fluid): 0.64 µg/kg; BALF protein MSED [4, 12]: 100 µg/kg; stability in the presence of human plasma [5]: particularly stable
CCOC(=O)[C@@]1(OC(=O)C(Cl)Cl)CC[C@H]2[C@@H]3CCC4=CC(=O)C=C[C@]4(C)[C@H]3[C@@H](O)C[C@@]21C [Compound 3, Ethyl 17α-dichloroacetoxy-11β-hydroxyandrosta-1,4-diene-3-one-17β-carboxylate]	27	103	10	73	2700	2.9	≤0.1	>100	13.8	0.1	≈1.0 μg/kg	0.1	0.1	1.0	≈1.0 μg/kg	~200	Eosinophilia Peribronchial ED50 [4, 11]: 0.62 µg/kg; Eosinophilia Peribronchial MSED [4, 12]: 0.1 µg/kg; inhibition of the liberation of IL-1β [6]: significantly inhibited; loss of activity during incubation (TNF-α production; five days): 100 fold; loss of activity during incubation (TNF-α production; two days): five-fold
CCOC(=O)O[C@]1(C(=O)OCCl)CCC2C3CCC4=CC(=O)C=CC4(C)C3[C@@H](O)CC21C (stereo partly drawn) [LE, chloromethyl 17α-ethoxycarbonyloxy-11β-hydroxyandrosta-1,4-dien-3-one-17β-carboxylate]	–	–	–	–	–	–	–	–	–	–	–	–	–	–	–	160	–

Reference: patent US11447522B2, “Potent soft anti-inflammatory corticosteroid compounds and uses thereof” (Bodor Laboratories, Inc., priority 2017, dated 2022)
